Measurements from patent publication US11059821B2, “1H-pyrrolo[2,3-c]pyridin-7(6H)-ones and pyrazolo[3,4-c]pyridin-7(6H)-ones as inhibitors of BET proteins” (Incyte Corporation, priority 2014, dated 2021).

tested on: KMS.12.BM cell line (human myeloma); assay: KMS.12.BM cell viability assay; type: cell-based; conditions: 72 h, 3 days, ATP quantitation (Cell Titer-GLO), concentration for 50% cell death
Procedure: KMS.12.BM cell line (human myeloma) was purchased from JCRB (Osaka, Japan) and maintained in RPMI with 10% FBS culture medium. To measure the cytotoxic activity of the compounds through ATP quantitation, the KMS. 12.BM cells are plated in the RPMI culture medium at 5000 cells/well/per 100 μL into a 96-well polystyrene clear black tissue culture plate (Greiner-bio-one through VWR, NJ), in the presence or absence of a concentration range of test compounds. After 3 days, […] Cell Titer-GLO Luminescent (Promega, Madison, Wis.) cell culture agent is added to each well for 10 minutes at room temperature to stabilize the luminescent signal. This determines the number of viable cells in culture based on quantitation of the ATP present, which signals the presence of metabolically active cells. Luminescence is measured with the Top Count 384 (Packard Bioscience through Perkin Elmer, Boston, Mass.). Compound inhibition is determined relative to cells cultured with no drug and the IC50 is reported as the compound concentration required for 50% cell death.

Row | SMILES | IC50 [nM]
1 | Cn1cc(-c2cc(S(C)(=O)=O)cc3c2OC(c2ccccc2)C(=O)N3)c2cc[nH]c2c1=O (stereo not shown) [Example 46, 8-(6-methyl-7-oxo-6,7-dihydro-1H-pyrrolo[2,3-c]pyridin-4-yl)-6-(methylsulfonyl)-2-phenyl-2H-1,4-benzoxazin-3(4H)-one] | ≤ 1000
2 | CC(=O)c1cc2c(c(-c3cn(C)c(=O)c4[nH]ccc34)c1)OC(C(C)C)C(=O)N2 (stereo not shown) [Example 49, 6-acetyl-2-isopropyl-8-(6-methyl-7-oxo-6,7-dihydro-1H-pyrrolo[2,3-c]pyridin-4-yl)-2H-1,4-benzoxazin-3(4H)-one] | ≤ 1000
3 | CC(=O)c1cc2c(c(-c3cn(C)c(=O)c4[nH]ccc34)c1)OC(C)(C)C(=O)N2 [Example 80, 6-acetyl-2,2-dimethyl-8-(6-methyl-7-oxo-6,7-dihydro-1H-pyrrolo[2,3-c]pyridin-4-yl)-2H-1,4-benzoxazin-3(4H)-one] | ≤ 1000
4 | CC(=O)c1cc(-c2cn(C)c(=O)c3[nH]ccc23)c2c(c1)N(C)C(=O)C(C)(C)O2 [Example 82, 6-acetyl-2,2,4-trimethyl-8-(6-methyl-7-oxo-6,7-dihydro-1H-pyrrolo[2,3-c]pyridin-4-yl)-2H-1,4-benzoxazin-3(4H)-one] | ≤ 1000
